This is an account of results in US20070282011A1, “Biodegradable water soluble polymers” (MediVas, LLC, priority 2006, published 2007).

The conditions of data set [1]: ionizable group of side chain R3 of natural amino acid residue; tabulated as a guide; cited from earlier work.
Data set [2] can be described thus: in vitro. To be noted: endothelial cells.
Description: (§1) In vitro assays were conducted using endothelial cells and smooth muscle cells.
(§2) The cells were then fed again with fresh medium (Endothelial Growth Media, EGM-2 BulletKit, Cambrex) and increasing doses of the test substrates were introduced at the following concentrations: 0.1, 0.5, 1, 2, 8 and 40 ng/ml in triplicate. […] The percent cell viability was then determined at 24, 48 and 72 hours following exposure to the test substances, using a standard ATP assay (ViaLight Plus assay kit, Cambrex).
In data set [3] the test system is endothelial cells. As to the kind of experiment: In vitro cell culture cytotoxicity, percent cell viability by ATP assay (ViaLight Plus). To be noted: 0.1-40 ng/ml Taxol equivalent.
Description: as §1, §2

The term viability denotes a read-out of living cells in per cent, often relative to untreated cells.

In the case of `N[C@@H](CCC(=O)O)C(=O)O` [Glutamic acid], the pK in data set [1] is 4.07.

`N[C@@H](Cc1c[nH]cn1)C(=O)O` [Histidine]: in data set [1], the pK is 6.10.

Turning to `NCCCC[C@H](N)C(=O)O` [Lysine], in data set [1], the pK is 10.5.

For `CC(=O)O[C@H]1C(=O)[C@@]2(C)[C@H]([C@H](OC(=O)c3ccccc3)[C@]3(O)C[C@H](OC(=O)[C@H](O)[C@@H](NC(=O)c4ccccc4)c4ccccc4)C(C)=C1C3(C)C)[C@]1(OC(C)=O)CO[C@@H]1C[C@@H]2O` [Taxol, 5β,20-Epoxy-1,2α,4,7β,10β,13α-hexahydroxytax-11-en-9-one 4,10-diacetate 2-benzoate 13-ester with (2R,3S)—N-benzoyl-3-phenylisoserine], in data set [2], the viability at 72 h, 0.1 ng/ml came to 126%; the viability at 72 h, 0.5 ng/ml came out at 123%; the viability at 72 h, 1 ng/ml is 114%; the viability at 72 h, 2 ng/ml turned out to be 90%. Moreover, in data set [2], the viability at 72 h, 8 ng/ml was determined as 38.6% and the viability at 72 h, 40 ng/ml was found to be 15.5%.

On to `CC(=O)O[C@H]1C(=O)[C@@]2(C)[C@H]([C@H](OC(=O)c3ccccc3)[C@]3(O)C[C@H](OC(=O)[C@H](OC(=O)CCC(=O)O)[C@@H](NC(=O)c4ccccc4)c4ccccc4)C(C)=C1C3(C)C)[C@]1(OC(C)=O)CO[C@@H]1C[C@@H]2O` [Taxol-SA, Taxol-2′-hemisuccinate], for which the “cytotoxicity to the cells (in words)” value in data set [3] is “does not appear to change the cytotoxicity”.

As to `N[C@@H](Cc1ccc(O)cc1)C(=O)O` [Tyrosine], the pK in data set [1] is recorded as 10.0.
